Results from ChEMBL document CHEMBL1132399, “Synthesis of novel orthoalkylaminophenol derivatives as potent neuroprotective agents in vitro” (Bioorg Med Chem Lett, 1999).

Columns and labels:
[1] = test system: HT-22; test: Tested in vitro for its neuroprotective activity against L-homocysteic acid(L-HCA) cytotoxicity, in murine HT-22 hippocampal cell culture, monitored by LDH assay.; assay type: functional, Mus musculus
[2] = test system: HT-22; test: Maximum tolerated concentration required for neurotoxicity on murine HT-22 hippocampal cell culture, monitored by LDH assay tested in vitro; assay type: functional, Mus musculus
[3] = Safety index (MTC/PC50); assay type: toxicity; settings: read-out: Safety index
[4] = test system: HT-22; test: Compound was tested in vitro for its neuroprotective activity against L-homocysteic acid(L-HCA) cytotoxicity in murine HT-22 hippocampal cell culture monitored by MTT reduction assay; assay type: functional, Mus musculus
[5] = test system: HT-22; test: Maximum tolerated concentration required for neurotoxicity on murine HT-22 hippocampal cell culture, monitored by MTT reduction assay tested in vitro; assay type: functional, Mus musculus
[6] = test system: HT-22; test: Tested in vitro for neurotoxicity on murine HT-22 hippocampal cell culture, monitored by LDH assay.; assay type: functional; settings: Mus musculus, read-out: TC50 (the source's name)
[7] = test system: HT-22; test: Tested in vitro for neurotoxicity on murine HT-22 hippocampal cell culture, monitored by MTT reduction assay; assay type: functional; settings: Mus musculus, read-out: TC50 (the source's name)
[8] = test system: HT-22; test: Tested in vitro for its neuroprotective activity against L-homocysteic acid(L-HCA) cytotoxicity, in murine HT-22 hippocampal cell culture, monitored by MTT reduction assay; assay type: functional, Mus musculus

Structure (SMILES): Cc1c(C)c2c(c(C)c1O)CC[C@@](C)(CCC[C@H](C)CCC[C@H](C)CCCC(C)C)O2 [ALPHA-TOCOPHEROL]
- PC50 [1]: 1.7 µM
- MTC [2]: >200 µM
- selectivity ratio [3]: > 250
- PC50 [4]: 0.8 µM
- MTC [5]: >200 µM
- CC50 [6]: > 200 µM
- CC50 [7]: > 200 µM

Structure (SMILES): O=C(c1cc(O)c(O)c(O)c1)c1ccc(O)c(O)c1O [EXIFONE]
- PC50 [1]: >10 µM
- MTC [2]: 50 µM
- MTC [5]: 10 µM
- PC50 [8]: >10 µM
- CC50 [6]: 91 µM
- CC50 [7]: 34 µM
